One experiment concerns the target T1, M1 (Rattus norvegicus, UniProt P08482).
T1 construct: from tissue; host or cells: living male THOM rat (site of action, sympathetic ganglia, is own knowledge)
T1 sequence (P08482 1-460): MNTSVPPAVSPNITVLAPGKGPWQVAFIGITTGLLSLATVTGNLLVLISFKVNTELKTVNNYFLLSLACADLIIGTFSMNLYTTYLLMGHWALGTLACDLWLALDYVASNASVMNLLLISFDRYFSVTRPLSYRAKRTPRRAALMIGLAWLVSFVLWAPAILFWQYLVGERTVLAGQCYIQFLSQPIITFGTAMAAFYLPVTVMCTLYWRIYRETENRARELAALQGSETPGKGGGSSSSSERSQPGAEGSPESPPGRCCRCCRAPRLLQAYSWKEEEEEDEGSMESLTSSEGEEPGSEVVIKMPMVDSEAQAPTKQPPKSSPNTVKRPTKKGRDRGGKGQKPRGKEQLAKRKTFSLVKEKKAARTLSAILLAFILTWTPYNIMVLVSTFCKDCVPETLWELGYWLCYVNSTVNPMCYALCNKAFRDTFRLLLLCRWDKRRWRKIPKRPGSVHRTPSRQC
Kind of experiment: M1 activity in the rat: inhibition of rise in blood pressure caused by McN-A-343. In kind it is in vivo, rat (male THOM). The note with it: iv, 5 min, read-out: M1 activity (rat) ED50. How it is done:
The dosage of the substances which reduced either the vagal bradycardia (M2) or the rise in blood pressure (M1) by 50% was determined graphically. For the results see Table II.

For another experiment, the system named is bladder. In words: Inhibition of acetylcholine activity on the bladder (contraction of the exposed bladder). The format is in vivo, guinea pig. The note with it: Cavia porcellus, 5 min, read-out: log ED50, Bladder. How it is done:
(§1) 5 minutes after the administration of the test substance, 10 mcg/kg of acetylcholine were simultaneously injected intravenously and intra-arterially into anaesthetised guinea pigs. The heart rate was recorded directly by extracorporeal derivation of the ECG, the expiration resistance according to Konzett-Rossler and contraction of the exposed bladder. In order to determine the inhibition of the acetylcholine activity on the organs under investigation, dosage/activity curves were recorded and from them -log ED50 values were determined.

Experiment [1] has as its target T2, muscarinic receptors of the atrium (Cavia porcellus, UniProt H0VRN8).
T2 construct: isolated, spontaneously beating, right atrium; from tissue; host or cells: isolated spontaneously beating right atrium of the guinea pig
T2 sequence (H0VRN8 1-466): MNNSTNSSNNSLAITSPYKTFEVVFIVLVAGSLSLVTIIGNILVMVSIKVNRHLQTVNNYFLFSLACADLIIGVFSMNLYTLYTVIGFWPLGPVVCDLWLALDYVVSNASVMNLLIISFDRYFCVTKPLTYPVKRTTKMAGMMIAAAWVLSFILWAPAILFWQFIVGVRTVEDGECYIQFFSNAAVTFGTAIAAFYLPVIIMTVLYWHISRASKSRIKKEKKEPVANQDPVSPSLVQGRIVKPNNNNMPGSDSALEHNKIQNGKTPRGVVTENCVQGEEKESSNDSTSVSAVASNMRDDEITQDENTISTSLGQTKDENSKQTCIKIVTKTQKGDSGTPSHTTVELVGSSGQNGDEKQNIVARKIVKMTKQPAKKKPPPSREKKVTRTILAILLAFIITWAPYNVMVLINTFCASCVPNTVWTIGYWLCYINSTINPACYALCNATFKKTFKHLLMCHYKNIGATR
Kind of experiment: Dissociation constants (KB values) on the isolated spontaneously beating right atrium. Particulars: spontaneously beating atrium, guinea pig, methacholine, 30 minutes contact; read-out: KB, Heart. On the set-up: species or system guinea pig. On the procedure:
Dissociation constants (KB values) were determined "in vitro" on the ileum and spontaneously beating atrium of the guinea pig. The ileum was taken out and incubated in Krebs-Henseleit solution in an organ bath. Contractions were induced by increasing concentrations of methacholine (M) so that total concentration/activity curves could be recorded. M was then washed out, the test substance was added and kept in contact for 30 minutes and another concentration/activity curve was recorded with M.
Dissociation constants for the muscarinic receptors of the atrium were obtained in the manner described above.

In experiment [2] the target is T3, muscarinic receptors (heart, ventricle) (Rattus norvegicus, UniProt P10980).
T3 construct: from tissue; host or cells: heart (atrium, ventricle) of female rats, labelled in vivo
T3 sequence (P10980 1-466): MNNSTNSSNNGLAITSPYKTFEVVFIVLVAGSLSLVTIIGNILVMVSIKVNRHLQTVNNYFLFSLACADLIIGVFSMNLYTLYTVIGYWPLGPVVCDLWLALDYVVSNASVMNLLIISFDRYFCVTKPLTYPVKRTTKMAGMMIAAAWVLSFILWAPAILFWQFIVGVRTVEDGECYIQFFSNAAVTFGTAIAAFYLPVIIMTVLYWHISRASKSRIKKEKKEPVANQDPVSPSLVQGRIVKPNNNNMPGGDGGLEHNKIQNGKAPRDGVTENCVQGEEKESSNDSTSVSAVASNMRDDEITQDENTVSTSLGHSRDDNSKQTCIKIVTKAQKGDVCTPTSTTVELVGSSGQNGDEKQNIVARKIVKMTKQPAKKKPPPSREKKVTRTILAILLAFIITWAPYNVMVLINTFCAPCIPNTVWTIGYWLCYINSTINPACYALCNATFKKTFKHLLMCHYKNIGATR
Kind of experiment: Receptor binding test in vivo (3H-NMS), ventricle. More on the design: species or system rat (female). The note with it: iv, 0.5 h, read-out: ID50, Heart, Ventricle. On the procedure: (§2) For these experiments, female rats with a body weight of about 200 g were used. Before the start of the experiment the animals were anaesthetised with a dose of 1.25 g/kg of urethane. The animals were given the dosage of test substance by i.v. injection. After 15 minutes, 113 ng/kg of ^3 H-N-methylscopolamine (^3 H-NMS) were given by the same route. After another 15 minutes the animals were killed and their heart, bronchi and lachrymal glands were taken out. These organs were dissolved in Soluene R and the radioactivity was measured. These measurements were taken as representing total binding. […] The ID50 values for the individual organs were determined from these experiments. […]

Experiment [3] addresses muscarinic receptors (lachrymal glands) (Rattus norvegicus, UniProt P08483). Kind of experiment: in vivo. Particulars: iv, 0.5 h, read-out: ID50, Lachrymal glands. How it is done: as §2
The test system of the next experiment is heart rate. Kind of experiment: Inhibition of acetylcholine activity on heart rate. The format is in vivo, guinea pig. The note with it: Cavia porcellus, 5 min, read-out: log ED50, Heart. How it is done: as §1
The subject of experiment [4] is muscarinic receptors (bronchi). In words: Receptor binding test in vivo (3H-NMS), bronchi. More on the design: species or system rat (female). Particulars: i.v., in vivo 3H-NMS binding, rat; 30 min. On the procedure:
as §2

The target in experiment [5] is T4, muscarinic receptors (heart, atrium) (Rattus norvegicus, UniProt P10980).
T4 construct: from tissue; host or cells: heart (atrium, ventricle) of female rats, labelled in vivo
T4 sequence (P10980 1-466): T3 sequence (P10980 1-466)
Kind of experiment: Receptor binding test in vivo (3H-NMS), atrium. More on the design: species or system rat (female). The note with it: iv, 0.5 h, read-out: ID50, Heart, Atrium. How it is done:
as §2

Sequence of muscarinic receptors (lachrymal glands) (P08483 whole entry): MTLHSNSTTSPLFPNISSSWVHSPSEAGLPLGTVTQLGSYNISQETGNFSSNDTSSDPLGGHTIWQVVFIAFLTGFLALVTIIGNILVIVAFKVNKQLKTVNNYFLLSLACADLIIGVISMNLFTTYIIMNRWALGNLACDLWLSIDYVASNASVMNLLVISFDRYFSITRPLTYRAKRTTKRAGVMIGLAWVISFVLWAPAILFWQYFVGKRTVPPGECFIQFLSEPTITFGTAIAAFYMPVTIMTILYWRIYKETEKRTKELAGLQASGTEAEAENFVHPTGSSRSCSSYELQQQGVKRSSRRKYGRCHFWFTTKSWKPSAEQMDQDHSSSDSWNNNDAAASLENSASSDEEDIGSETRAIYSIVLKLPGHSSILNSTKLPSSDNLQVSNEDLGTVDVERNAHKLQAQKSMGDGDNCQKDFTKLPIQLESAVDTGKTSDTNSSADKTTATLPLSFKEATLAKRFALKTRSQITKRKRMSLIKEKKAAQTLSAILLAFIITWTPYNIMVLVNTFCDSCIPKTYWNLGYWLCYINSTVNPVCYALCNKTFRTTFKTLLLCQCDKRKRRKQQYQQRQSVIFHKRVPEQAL

Consider `CN1[C@@H]2CC[C@H]1C[C@@H](OC(=O)C(CO)c1ccccc1)C2` (some centres unmarked) [Substance Z, atropine, reference compound], for which the ED50 was 0.016 mg/kg at M1; 0.0933 µmol/kg with bladder; 0.03 mg/kg in experiment [2]; 0.2 mg/kg in experiment [3]; 0.02 µmol/kg in the experiment on heart rate; 0.08 mg/kg in experiment [5]. The Kb in experiment [1] stood at 1.41 nM. Moreover, the “ID50, Bronchi” value in experiment [4] amounted to 0.1 mg/kg.

The record behind these values is patent publication US4931436A, “Condensed diazepinones, processes for preparing them and pharmaceutical compositions containing these compounds” (Dr. Karl Thomae GmbH, priority 1988, dated 1990).
